Reference: US12643881B2, “Bicyclic amine CDK12 inhibitors” (Incyte Corporation, priority 2021, dated 2026)

molecular target: T1, CDK12 complexed with Cyclin K (Homo sapiens, UniProt Q9NYV4); experiment: CDK Enzymatic Assays (HTRF, LANCE Ultra kinase assay), Example A1; format: biochemical; settings: enzyme pre-incubated with compounds for 60 minutes prior to addition of ATP (1 mM final) and Ulight-peptide; reaction 60-90 minutes at room temperature
T1 construct: GST (N)
Excerpt: Example A1. CDK Enzymatic Assays
The following activity of the CDK enzymes in complex with their respective cyclins we assayed: CDK1 complexed with Cyclin B1; CDK2 complexed with Cyclin E1; CDK4 complexed with Cyclin D1; CDK6 complexed with Cyclin D1; CDK6 complexed with Cyclin D3; CDK9 complexed with Cyclin T1; CDK7 complexed with Cyclin H/MAT1; CDK2 complexed with Cyclin A2; CDK5 complexed with p35; CDK12 complexed with Cyclin K; CDK13 complexed with Cyclin K. These in vitro enzyme activity are assayed using homogeneous time-resolved energy transfer (HTRF), which measures phosphorylation of a peptide substrate. The LANCER Ultra kinase assay (PerkinElmer) uses a ULight™-labeled EIF4E-binding protein 1 (THR37/46) peptide (DYSTTPGGTLFSTTPGTRI (SEQ ID NO: 1)) substrate and a Europium-labeled anti-phospho-4E-BP1 antibody (CDK2, CDK1, CDK4, CDK6, CDK9, CDK12, CDK13) or ULight™-labeled Myelin Basic Protein peptide (VTPRTPPP (SEQ ID NO: 2)) substrate and a Europium-labeled anti-phospho-MBP antibody (CDK7). Each CDK enzyme activity assays utilized human CDK co-expressed as N-terminal GST-tagged protein with its full length cyclin partner using a baculovirus expression system.
Enzyme was pre-incubated with compounds for 30 minutes (CDK1,2,4,6,9) or 60 minutes (CDK7, CDK12, CDK13) prior to addition of ATP and Ulight-peptide (1 mM and 50 nM final, respectively), in assay buffer containing 50 mM HEPES pH 7.5, 1 mM EGTA, 10 mM MgCl2, 2 mM DTT, 0.05 mg/mL BSA, and 0.01% Tween 20. The reaction was then incubated for 60-90 minutes at room temperature. The reactions were stopped by the addition of EDTA and Europium labeled antibody, for a final concentration of 15 mM and 1.0-1.5 nM, respectively. HTRF signals were read after 15-120 minutes. A ratio of fluorescence transferred to the labeled substrate (665 nm) relative to fluorescence of the Europium donor (620 nm) represents the extent of phosphorylation. Ratios for treated wells were normalized to DMSO only (100% activity) and no enzyme (0% activity) controls. Normalized data was analyzed using a three or four parameter dose response curve to determine IC50 for each compound and are shown in Table A. Control reference inhibitors were included on each plate.

T1 sequence (Q9NYV4 whole entry): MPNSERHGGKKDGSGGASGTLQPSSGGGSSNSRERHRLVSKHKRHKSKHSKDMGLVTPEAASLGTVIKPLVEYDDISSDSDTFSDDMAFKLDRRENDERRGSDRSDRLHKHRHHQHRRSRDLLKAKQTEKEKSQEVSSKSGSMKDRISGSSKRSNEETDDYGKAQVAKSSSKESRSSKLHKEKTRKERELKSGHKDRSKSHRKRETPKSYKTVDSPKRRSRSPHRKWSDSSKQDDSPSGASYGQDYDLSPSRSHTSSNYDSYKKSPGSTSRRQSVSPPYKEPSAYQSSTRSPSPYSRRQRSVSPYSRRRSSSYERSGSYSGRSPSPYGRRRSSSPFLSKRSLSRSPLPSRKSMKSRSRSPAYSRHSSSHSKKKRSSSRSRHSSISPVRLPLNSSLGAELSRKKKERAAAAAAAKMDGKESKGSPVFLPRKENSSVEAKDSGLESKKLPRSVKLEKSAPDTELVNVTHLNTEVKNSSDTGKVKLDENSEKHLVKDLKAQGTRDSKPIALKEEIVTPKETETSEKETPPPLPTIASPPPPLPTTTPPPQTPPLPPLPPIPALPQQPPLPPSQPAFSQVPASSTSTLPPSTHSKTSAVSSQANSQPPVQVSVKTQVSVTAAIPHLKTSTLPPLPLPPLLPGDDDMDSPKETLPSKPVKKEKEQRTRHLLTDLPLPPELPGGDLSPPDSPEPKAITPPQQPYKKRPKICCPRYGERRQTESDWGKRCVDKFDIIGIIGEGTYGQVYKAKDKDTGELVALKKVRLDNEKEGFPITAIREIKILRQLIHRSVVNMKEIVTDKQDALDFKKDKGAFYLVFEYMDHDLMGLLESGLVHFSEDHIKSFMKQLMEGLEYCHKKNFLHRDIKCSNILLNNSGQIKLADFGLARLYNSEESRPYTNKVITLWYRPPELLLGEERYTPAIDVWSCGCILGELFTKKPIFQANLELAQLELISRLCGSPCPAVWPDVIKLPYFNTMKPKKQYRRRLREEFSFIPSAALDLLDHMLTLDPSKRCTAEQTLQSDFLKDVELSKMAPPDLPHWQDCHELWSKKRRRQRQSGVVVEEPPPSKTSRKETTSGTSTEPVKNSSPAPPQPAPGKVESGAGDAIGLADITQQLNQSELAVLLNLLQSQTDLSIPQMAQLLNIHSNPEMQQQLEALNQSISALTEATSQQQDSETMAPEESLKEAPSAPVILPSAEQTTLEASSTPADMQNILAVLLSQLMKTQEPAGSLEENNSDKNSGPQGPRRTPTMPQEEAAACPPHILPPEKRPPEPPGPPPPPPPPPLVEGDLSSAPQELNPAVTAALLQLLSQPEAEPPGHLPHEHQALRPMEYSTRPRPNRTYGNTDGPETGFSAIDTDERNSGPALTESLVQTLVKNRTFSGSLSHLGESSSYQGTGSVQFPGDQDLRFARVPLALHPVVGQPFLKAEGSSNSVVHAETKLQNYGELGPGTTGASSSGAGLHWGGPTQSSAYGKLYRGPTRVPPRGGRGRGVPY
T1 sequence (O75909 whole entry partner): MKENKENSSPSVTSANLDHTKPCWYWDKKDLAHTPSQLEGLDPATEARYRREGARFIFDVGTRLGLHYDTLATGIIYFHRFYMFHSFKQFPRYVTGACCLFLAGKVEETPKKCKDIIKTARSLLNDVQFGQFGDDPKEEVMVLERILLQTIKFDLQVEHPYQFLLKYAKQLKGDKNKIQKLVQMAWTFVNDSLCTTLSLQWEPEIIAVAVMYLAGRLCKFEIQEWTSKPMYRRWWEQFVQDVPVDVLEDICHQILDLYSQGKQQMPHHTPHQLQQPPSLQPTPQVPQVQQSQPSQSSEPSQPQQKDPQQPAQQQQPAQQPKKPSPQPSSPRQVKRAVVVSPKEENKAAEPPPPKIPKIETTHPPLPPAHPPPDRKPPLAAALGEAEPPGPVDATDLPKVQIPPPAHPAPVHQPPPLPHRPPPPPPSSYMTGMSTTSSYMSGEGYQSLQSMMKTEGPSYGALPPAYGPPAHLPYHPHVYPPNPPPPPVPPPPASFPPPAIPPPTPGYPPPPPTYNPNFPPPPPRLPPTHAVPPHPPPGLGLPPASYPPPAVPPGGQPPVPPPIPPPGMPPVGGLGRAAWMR

Row | Structure (SMILES) | IC50
1 | C=CC(=O)Nc1nn(C)c2cc(N3CCC[C@@H](Nc4ncc(C#N)c(OC)n4)C3)ncc12 [Example 1, (R)—N-(6-(3-((5-Cyano-4-methoxypyrimidin-2-yl)amino)piperidin-1-yl)-1-methyl-1H-pyrazolo[4,3-c]pyridin-3-yl)acrylamide] | < 50 nM
2 | C=CC(=O)Nc1nn(C)c2cc(N3CC[C@@H](Nc4ncc(C#N)c(OC)n4)C3)ncc12 [Example 2, (R)—N-(6-(3-((5-Cyano-4-methoxypyrimidin-2-yl)amino)pyrrolidin-1-yl)-1-methyl-1H-pyrazolo[4,3-c]pyridin-3-yl)acrylamide] | < 50 nM
3 | C=CC(=O)Nc1nc2c(N3CC[C@@H](Nc4ncc(C#N)c(OC)n4)C3)nccn2n1 [Example 3, (R)—N-(8-(3-((5-Cyano-4-methoxypyrimidin-2-yl)amino)pyrrolidin-1-yl)-[1,2,4]triazolo[1,5-a]pyrazin-2-yl)acrylamide] | < 50 nM
4 | C=CC(=O)Nc1ccc2c(c1)C(=O)N([C@H]1CCC[C@@H](Nc3ncc(-c4ccc(OC)cc4)cn3)C1)C2 [Example 4, N-(2-((1S,3R)-3-((5-(4-Methoxyphenyl)pyrimidin-2-yl)amino)cyclohexyl)-3-oxoisoindolin-5-yl)acrylamide] | > 500 nM
5 | C=CC(=O)Nc1ccc2c(c1)C(=O)N([C@H]1CCC[C@@H](Nc3ncc(C)c(C(F)(F)F)n3)C1)C2 [Example 5, N-(2-((1S,3R)-3-((5-Methyl-4-(trifluoromethyl)pyrimidin-2-yl)amino)cyclohexyl)-3-oxoisoindolin-5-yl)acrylamide] | < 50 nM
6 | C=CC(=O)Nc1ccc2c(c1)C(=O)N([C@H]1CCC[C@@H](Nc3ncc(OC(F)F)cn3)C1)C2 [Example 6, N-(2-((1S,3R)-3-((5-(Difluoromethoxy)pyrimidin-2-yl)amino)cyclohexyl)-3-oxoisoindolin-5-yl)acrylamide] | < 50 nM
7 | C=CC(=O)Nc1ccc2c(c1)C(=O)N([C@H]1CCC[C@@H](Nc3ncc(C=C)cn3)C1)C2 [Example 7, N-(3-Oxo-2-((1S,3R)-3-((5-vinylpyrimidin-2-yl)amino)cyclohexyl)isoindolin-5-yl)acrylamide] | < 50 nM
8 | C=CC(=O)Nc1ccc2c(c1)C(=O)N([C@H]1CCC[C@@H](Nc3ncc(-c4cnn(C)c4)cn3)C1)C2 [Example 8, N-(2-((1S,3R)-3-((5-(1-Methyl-1H-pyrazol-4-yl)pyrimidin-2-yl)amino)cyclohexyl)-3-oxoisoindolin-5-yl)acrylamide] | > 500 nM
9 | C=CC(=O)Nc1ccc2c(c1)C(=O)N([C@H]1CCC[C@@H](Nc3ncc(C#N)c(C)n3)C1)C2 [Example 9, N-(2-((1S,3R)-3-((5-Cyano-4-methylpyrimidin-2-yl)amino)cyclohexyl)-3-oxoisoindolin-5-yl)acrylamide] | < 50 nM
10 | C=CC(=O)Nc1ccc2c(c1)C(=O)N([C@H]1CCC[C@@H](Nc3ncc(CC)cn3)C1)C2 [Example 10, N-(2-((1S,3R)-3-((5-Ethylpyrimidin-2-yl)amino)cyclohexyl)-3-oxoisoindolin-5-yl)acrylamide] | < 50 nM
11 | C=CC(=O)Nc1ccc2c(c1)C(=O)N([C@H]1CCC[C@@H](Nc3ncc(C4CC4)cn3)C1)C2 [Example 11, N-(2-((1S,3R)-3-((5-Cyclopropylpyrimidin-2-yl)amino)cyclohexyl)-3-oxoisoindolin-5-yl)acrylamide] | 50 to 500 nM
12 | C=CC(=O)Nc1ccc2c(c1)C(=O)N([C@H]1CCC[C@@H](Nc3ncc(C(C)C)cn3)C1)C2 [Example 12, N-(2-((1S,3R)-3-((5-Isopropylpyrimidin-2-yl)amino)cyclohexyl)-3-oxoisoindolin-5-yl)acrylamide] | < 50 nM
13 | C=CC(=O)Nc1ccc2c(c1)C(=O)N([C@H]1CCC[C@@H](Nc3ncc(C)c(OC)n3)C1)C2 [Example 13, N-(2-((1S,3R)-3-((4-Methoxy-5-methylpyrimidin-2-yl)amino)cyclohexyl)-3-oxoisoindolin-5-yl)acrylamide] | 50 to 500 nM
14 | C=CC(=O)Nc1c(C)nc2c(N3CCC[C@@H](Nc4ncc(C#N)c(OC)n4)C3)nccn12 [Example 14, (R)—N-(8-(3-((5-Cyano-4-methoxypyrimidin-2-yl)amino)piperidin-1-yl)-2-methylimidazo[1,2-a]pyrazin-3-yl)acrylamide] | < 50 nM
15 | C=CC(=O)Nc1ccc2c(c1)C(=O)N([C@H]1CCC[C@@H](Nc3ccc(C#N)c(C)n3)C1)C2 [Example 15, N-(2-((1S,3R)-3-((5-Cyano-6-methylpyridin-2-yl)amino)cyclohexyl)-3-oxoisoindolin-5-yl)acrylamide] | > 500 nM
16 | C=CC(=O)Nc1ccc2c(c1)C(=O)N([C@H]1CCC[C@@H](Nc3cc(C)c(C#N)cn3)C1)C2 [Example 16, N-(2-((1S,3R)-3-((5-Cyano-4-methylpyridin-2-yl)amino)cyclohexyl)-3-oxoisoindolin-5-yl)acrylamide] | 50 to 500 nM
17 | C#Cc1cnc(N[C@@H]2CCC[C@H](N3Cc4ccc(NC(=O)C=C)cc4C3=O)C2)nc1 [Example 17, N-(2-((1S,3R)-3-((5-Ethynylpyrimidin-2-yl)amino)cyclohexyl)-3-oxoisoindolin-5-yl)acrylamide] | < 50 nM
18 | C=CC(=O)Nc1ccc2c(c1)C(=O)N([C@H]1CCC[C@@H](Nc3cc(C(F)(F)F)c(C#N)cn3)C1)C2 [Example 18, N-(2-((1S,3R)-3-((5-Cyano-4-(trifluoromethyl)pyridin-2-yl)amino)cyclohexyl)-3-oxoisoindolin-5-yl)acrylamide] | < 50 nM
19 | C=CC(=O)Nc1ccc2c(c1)C(=O)N([C@H]1CCC[C@@H](Nc3cc(C#N)c(C(F)(F)F)cn3)C1)C2 [Example 19, N-(2-((1S,3R)-3-((4-Cyano-5-(trifluoromethyl)pyridin-2-yl)amino)cyclohexyl)-3-oxoisoindolin-5-yl)acrylamide] | < 50 nM
20 | C=CC(=O)Nc1nn(C)c2c(N3CC[C@@H](Nc4ncc(C#N)cn4)C3)cccc12 [Example 20, (R)—N-(7-(3-((5-Cyanopyrimidin-2-yl)amino)pyrrolidin-1-yl)-1-methyl-1H-indazol-3-yl)acrylamide] | 50 to 500 nM
21 | C=CC(=O)Nc1nn(C)c2cc(N3CC[C@@H](Nc4ncc(C#N)c(OC)n4)C3)ccc12 [Example 21, (R)—N-(6-(3-((5-Cyano-4-methoxypyrimidin-2-yl)amino)pyrrolidin-1-yl)-1-methyl-1H-indazol-3-yl)acrylamide] | 50 to 500 nM
22 | C=CC(=O)Nc1nc2cccc(N3CCC[C@@H](Nc4ncc(C#N)c(OC)n4)C3)n2n1 [Example 22, (R)—N-(5-(3-((5-Cyano-4-methoxypyrimidin-2-yl)amino)piperidin-1-yl)-[1,2,4]triazolo[1,5-a]pyridin-2-yl)acrylamide] | < 50 nM
23 | C=CC(=O)Nc1nc2cccc(N3CC[C@@H](Nc4ncc(C#N)c(OC)n4)C3)n2n1 [Example 23, (R)—N-(5-(3-((5-Cyano-4-methoxypyrimidin-2-yl)amino)pyrrolidin-1-yl)-[1,2,4]triazolo[1,5-a]pyridin-2-yl)acrylamide] | < 50 nM
24 | C=CC(=O)Nc1cccc2c1cnn2[C@H]1CCC[C@@H](Nc2ncc(C#N)c(OC)n2)C1 [Example 24, N-(1-((1S,3R)-3-((5-Cyano-4-methoxypyrimidin-2-yl)amino)cyclohexyl)-1H-indazol-4-yl)acrylamide] | < 50 nM
25 | C=CC(=O)Nc1ccc2c(cnn2[C@H]2CCC[C@@H](Nc3ncc(C#N)c(OC)n3)C2)c1 [Example 25, N-(1-((1S,3R)-3-((5-Cyano-4-methoxypyrimidin-2-yl)amino)cyclohexyl)-1H-indazol-5-yl)acrylamide] | 50 to 500 nM
26 | C=CC(=O)Nc1ccc2c(ccn2[C@H]2CCC[C@@H](Nc3ncc(C#N)c(OC)n3)C2)c1 [Example 26, N-(1-((1S,3R)-3-((5-Cyano-4-methoxypyrimidin-2-yl)amino)cyclohexyl)-1H-indol-5-yl)acrylamide] | > 500 nM
27 | C=CC(=O)Nc1cccc2c1ncn2[C@H]1CCC[C@@H](Nc2ncc(C#N)c(OC)n2)C1 [Example 27, N-(1-((1S,3R)-3-((5-Cyano-4-methoxypyrimidin-2-yl)amino)cyclohexyl)-1H-benzo[d]imidazol-4-yl)acrylamide] | < 50 nM
28 | C=CC(=O)Nc1cccc2c(N3CCC[C@@H](Nc4ncc(C#N)c(OC)n4)C3)noc12 [Example 28, (R)—N-(3-(3-((5-Cyano-4-methoxypyrimidin-2-yl)amino)piperidin-1-yl)benzo[d]isoxazol-7-yl)acrylamide] | < 50 nM
29 | C=CC(=O)Nc1ccc2c(c1)C(=O)N([C@H]1CCC[C@@H](Nc3ncc(C(F)(F)F)s3)C1)C2 [Example 29, N-(3-Oxo-2-((1S,3R)-3-((5-(trifluoromethyl)thiazol-2-yl)amino)cyclohexyl)isoindolin-5-yl)acrylamide] | < 50 nM
